The source of these data is PubChem BioAssay (NCI).

Some test systems named below: HOP-62 NSCLC; SNB-19 CNS; UACC-257 melanoma; IGROV1 ovarian; SN12C renal; HL-60(TB) leukemia; MDA-MB-435; COLO 205 colon; HCT-15 colon; NCI-H226 lung; HT29 colon; A549 NSCLC; MDA-N; NCI-H460 lung; MOLT-4 leukemia; SW-620 colon; T-47D breast; UO-31 renal; K-562 leukemia; HOP-92 NSCLC.
Holding throughout (test): NCI anticancer screen, dose series, 48 h

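Each compound was tested at five concentrations against cells in 96-well plates for 48 hours. TGI: total growth inhibition.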 Some results are limits rather than exact numbers.

`COC(=O)[C@@H]1CC(C(CN)c2cn(C(=O)OC(C)(C)C)c3ccccc23)C(=O)N1C(=O)OC(C)(C)C` (some centres not stated): the TGI in the test with HOP-62 NSCLC is greater than 100 µM; in the test on SNB-19 CNS, greater than 100 µM; in the test on UACC-257 melanoma it was 32.2 µM; in the test with IGROV1 ovarian, 58.1 µM; with SN12C renal, 32.9 µM; in the test on HL-60(TB) leukemia it was 59.2 µM. Further, the TGI in the test with MDA-MB-435 is 50.7 µM; with COLO 205 colon it was 32.8 µM; in the test with HCT-15 colon, greater than 100 µM; in the test with NCI-H226 lung, 97.8 µM; in the test with HT29 colon, 55.2 µM; with A549 NSCLC, greater than 100 µM. The TGI in the test with MDA-N was 69.6 µM; in the test on NCI-H460 lung it was 56 µM; in the test with MOLT-4 leukemia it was 37.6 µM; in the test with SW-620 colon it was greater than 100 µM; in the test with T-47D breast, greater than 100 µM; in the test with UO-31 renal it was greater than 100 µM. This compound also showed a TGI in the test on K-562 leukemia of 48.4 µM.

In the case of `CC1(C)CC(=O)c2c(nc3c(ccc4ccccc43)c2-c2ccc(NC(=O)CCCCC(=O)Nc3ccc(-c4c5c(nc6c4ccc4ccccc46)CC(C)(C)CC5=O)cc3)cc2)C1`, the TGI in the test on HOP-62 NSCLC was greater than 100 µM; in the test with SNB-19 CNS it was greater than 100 µM; in the test on UACC-257 melanoma it was greater than 100 µM; in the test with IGROV1 ovarian, 37.5 µM; with SN12C renal it was 92.8 µM; with HL-60(TB) leukemia, 77.6 µM. Moreover, the TGI in the test on MDA-MB-435 was greater than 100 µM; with COLO 205 colon it was 65.1 µM; with HCT-15 colon, 50.9 µM; in the test with NCI-H226 lung, 54.9 µM; in the test with HT29 colon it was 62.3 µM; in the test on A549 NSCLC it was greater than 100 µM. Further, the TGI in the test with MDA-N is 68.3 µM; in the test with NCI-H460 lung it was 91.8 µM; in the test with MOLT-4 leukemia, 55.9 µM; in the test with SW-620 colon, greater than 100 µM; in the test on T-47D breast, greater than 100 µM; in the test with UO-31 renal, 74.1 µM. This compound showed a TGI in the test with K-562 leukemia greater than 100 µM.

On to `COc1ccc2c3c1OC1C34CCN(C)C(C2)C4=CC(I)C1(OC)OC` (configuration not stated), for which the TGI in the test on HOP-62 NSCLC was found to be 20.8 µM; in the test on SNB-19 CNS it was 30.5 µM; in the test on UACC-257 melanoma, 26.9 µM; in the test on IGROV1 ovarian it was 22.2 µM; in the test on SN12C renal, 18.9 µM; in the test on MDA-MB-435, 15.5 µM. Also, the TGI in the test on COLO 205 colon was 28.7 µM; in the test on HCT-15 colon it was 27.8 µM; with NCI-H226 lung it was 59.3 µM; in the test with HT29 colon it was 22 µM; with A549 NSCLC, 54.8 µM; in the test with MDA-N it was 18.8 µM. The TGI in the test on NCI-H460 lung came to 28 µM; in the test with MOLT-4 leukemia, 21.2 µM; with SW-620 colon, 20.1 µM; in the test on HOP-92 NSCLC it was 24.5 µM; in the test with T-47D breast it was 48.8 µM; in the test on UO-31 renal it was 28.5 µM. The TGI in the test with K-562 leukemia came out at 23.4 µM.

As to `N#C/C(N)=C(\C#N)N=CNc1ccc(N)cc1`, the TGI in the test with HOP-62 NSCLC, in the test on SNB-19 CNS, in the test on UACC-257 melanoma, in the test with IGROV1 ovarian, in the test with SN12C renal and in the test with HL-60(TB) leukemia was greater than 100 µM each time. Also, the TGI in the test with MDA-MB-435, in the test with COLO 205 colon, with HCT-15 colon, with NCI-H226 lung, in the test with HT29 colon and in the test with A549 NSCLC was greater than 100 µM throughout. Moreover, the TGI with MDA-N, with NCI-H460 lung, with MOLT-4 leukemia, with SW-620 colon, in the test with T-47D breast and with UO-31 renal was greater than 100 µM in each case. Besides, the TGI with K-562 leukemia was greater than 100 µM.

Take `C(=Nc1ccc(-c2nc3ccccc3[nH]2)cc1)c1ccco1`: the TGI in the test with HOP-62 NSCLC, in the test with UACC-257 melanoma, in the test on IGROV1 ovarian, in the test on SN12C renal, in the test with HL-60(TB) leukemia and with MDA-MB-435 was greater than 100 µM throughout. Besides, the TGI in the test with COLO 205 colon, with HCT-15 colon, with NCI-H226 lung, in the test on HT29 colon, in the test on A549 NSCLC and in the test on MDA-N was greater than 100 µM each time. Moreover, the TGI in the test with MOLT-4 leukemia, with SW-620 colon, in the test on HOP-92 NSCLC, in the test with T-47D breast, in the test with UO-31 renal and with K-562 leukemia was greater than 100 µM in each case.

For `CCOC(=O)c1cc(C2CCN(c3ccccc3)C2=O)c(C(=O)/C=C(/C)N)[nH]1` (configuration not stated), the TGI in the test on HOP-62 NSCLC was 46 µM; in the test on SNB-19 CNS, 52.4 µM; in the test on UACC-257 melanoma it was greater than 100 µM; in the test on IGROV1 ovarian, greater than 100 µM; in the test on SN12C renal, 63.7 µM; in the test with HL-60(TB) leukemia, greater than 100 µM. The TGI with MDA-MB-435 was greater than 100 µM; in the test on COLO 205 colon it was greater than 100 µM; in the test with HCT-15 colon, greater than 100 µM; in the test on NCI-H226 lung, 80.4 µM; in the test on HT29 colon, 25.6 µM; in the test with A549 NSCLC, greater than 100 µM. The TGI in the test with MDA-N, in the test on NCI-H460 lung, with MOLT-4 leukemia, with SW-620 colon, in the test with T-47D breast and with UO-31 renal was greater than 100 µM in each case. Besides, the TGI in the test on K-562 leukemia is greater than 100 µM.

Consider `CO[C@@H]1C[C@H](OC(N)=O)[C@@H]2C=C[C@@H]3/C=C(C)/C=C/[C@@H](C)[C@H](/C(C)=C/[C@@H](C)NC(C)=O)OC(=O)/C=C/C=C(C)\C=C\[C@]3(C)[C@@H]2C1`, for which the TGI with HOP-62 NSCLC was 0.429 µM; in the test on SNB-19 CNS, 10.2 µM; in the test on UACC-257 melanoma it was 0.0866 µM; with IGROV1 ovarian, 0.471 µM; in the test with SN12C renal it was 1.67 µM; with HL-60(TB) leukemia it was 3.04 µM. The TGI with MDA-MB-435 was 3.11 µM; in the test on COLO 205 colon, 0.514 µM; in the test on HCT-15 colon, 0.717 µM; in the test on HT29 colon, 0.278 µM; with A549 NSCLC it was 0.223 µM; with MDA-N it was 2.12 µM. The TGI in the test with MOLT-4 leukemia was 13.8 µM; with SW-620 colon, 1.24 µM; in the test with HOP-92 NSCLC, 0.148 µM; with T-47D breast, 2.98 µM; in the test on UO-31 renal, 0.111 µM; in the test with K-562 leukemia, 8.38 µM.

With `O=C(Nc1sccc1S(=O)(=O)c1ccccc1)c1ccccc1`, the TGI in the test with HOP-62 NSCLC, in the test with SNB-19 CNS, in the test with UACC-257 melanoma, in the test with IGROV1 ovarian, in the test with SN12C renal and in the test with MDA-MB-435 was greater than 100 µM throughout. Further, the TGI with COLO 205 colon, in the test on HCT-15 colon, with NCI-H226 lung, in the test on HT29 colon, in the test on A549 NSCLC and with MDA-N was greater than 100 µM each time. Also, the TGI with NCI-H460 lung is greater than 31.6 µM; in the test with MOLT-4 leukemia it was greater than 100 µM; in the test with SW-620 colon, greater than 100 µM; with HOP-92 NSCLC, greater than 100 µM; with T-47D breast it was greater than 100 µM; in the test with UO-31 renal, greater than 100 µM. Moreover, the TGI in the test on K-562 leukemia was greater than 19.9 µM.

As for `CC(C)(C)OC(=O)Cn1ncn(NC(=O)Cc2ccccc2)c1=O`, the TGI with HOP-62 NSCLC, in the test with SNB-19 CNS, with UACC-257 melanoma, in the test with IGROV1 ovarian, in the test on SN12C renal and with MDA-MB-435 was greater than 10 µM throughout. The TGI in the test with COLO 205 colon, in the test on HCT-15 colon, with NCI-H226 lung, in the test with HT29 colon, in the test with A549 NSCLC and in the test on MDA-N was greater than 10 µM each time. Also, the TGI in the test with NCI-H460 lung, with MOLT-4 leukemia, in the test on SW-620 colon, with HOP-92 NSCLC, in the test on T-47D breast and with UO-31 renal was greater than 10 µM each time. The compound also gave a TGI in the test with K-562 leukemia greater than 10 µM.

For `O=[N+]([O-])/C(C(Cl)=C(Cl)Cl)=C(\N1CCCCC1)n1nnc2ccccc21`, the TGI was 48.8 µM with HOP-62 NSCLC; 40.3 µM in the test on SNB-19 CNS; 37.2 µM in the test with UACC-257 melanoma; 34.1 µM with IGROV1 ovarian; 33.7 µM with SN12C renal; greater than 100 µM in the test with MDA-MB-435. Further, the TGI was determined as 34.4 µM in the test with COLO 205 colon; 39.1 µM in the test on HCT-15 colon; 42.6 µM with NCI-H226 lung; 39.3 µM with HT29 colon; 51.1 µM in the test on A549 NSCLC; 44.1 µM in the test on MDA-N. For the same compound, the TGI in the test on NCI-H460 lung is 47.6 µM; in the test with MOLT-4 leukemia, 18.3 µM; in the test on SW-620 colon, 39.1 µM; in the test with HOP-92 NSCLC, 39.6 µM; with T-47D breast it was greater than 100 µM; in the test with UO-31 renal, 34.3 µM. The compound further came in with a TGI in the test with K-562 leukemia of 22.5 µM.

With `CCn1c2ccccc2c2ccc(C3C(C(=O)OC)=C(C)NC(C)=C3C(=O)OC)cc21`, the TGI in the test with HOP-62 NSCLC, in the test with SNB-19 CNS, in the test on UACC-257 melanoma, with IGROV1 ovarian, in the test with SN12C renal and in the test on HL-60(TB) leukemia was greater than 100 µM throughout. The TGI with MDA-MB-435, in the test with COLO 205 colon, with HCT-15 colon, with NCI-H226 lung, in the test on HT29 colon and in the test with A549 NSCLC was greater than 100 µM each time. Moreover, the TGI in the test on MDA-N, in the test with NCI-H460 lung, in the test with MOLT-4 leukemia, with SW-620 colon, in the test with T-47D breast and in the test with UO-31 renal was greater than 100 µM each time. The compound also showed a TGI with K-562 leukemia greater than 100 µM.
